Measurements reported in patent US20090298895A1, “USE OF THIOPROLINE IN BODY WEIGHT REDUCTION TREATMENTS” (Universidad De Cadiz, priority 2006, published 2009).

Tests used:
Assay type in all cases: in vivo
CD-1 Swiss/UCàdiz mice [1] = assay: Average daily food intake ad libitum; conditions: diet with 2.0 g l-thioproline/kg of food
Description: To study the effect of thioproline, particularly of l-thioproline, on feeding behavior, CD-1 Swiss/UCàdiz mice bred in the Animal Experimentation department of the Universidad de Càdiz were used. The mice were stabled in groups of 5 animals at 22±2° C. with 12 h/12 h of light/dark cycles and with free access, ad libitum, to food and water. The control group received standard laboratory animal food (A04 diet, Panlab LS, Barcelona, Spain), whereas the l-thioproline-supplemented mice received the same food as the mice in the control group, but supplemented with 2.0 g of l-thioproline (Sigma Aldrich)/kg of food from 28 weeks of age and until the end of their lives. The food was weighed daily. The mice were weighed weekly, and it was periodically controlled that the animals were pathogen-free.

CD-1 Swiss/UCàdiz mice [2] = assay: Body weight of mice on l-thioproline-supplemented diet; design: Variation: percentage reduction in weight between supplemented mice and control mice: concentration or dose not given beside the values; conditions: for Average weight: average ± SEM
Text: To study the effect of thioproline, particularly of l-thioproline, on feeding behavior, CD-1 Swiss/UCàdiz mice bred in the Animal Experimentation department of the Universidad de Càdiz were used.
(§1) The mice strain used in this study, CD-1 Swiss/UCàdiz, is a type of mice with accelerated senescence similar to the AKR, SAM, NZB/Lac, and SJL/J mice having a mean life span of 36-57 weeks and a maximum life expectancy of 52-83 weeks. These mice have been used in the Universidad de Càdiz in several survival studies (Navarro A, Gomez C, Sanchez-Pino M J, Gonzalez H. Bandez M J, Boveris A D and Boveris A. Vitamin E at high doses improves survival, neurological performance, and brain mitochondrial function in aging male mice. Am J Physiol Regul Integr Comp Physiol 289: R1392-R1399, 2005; Navarro A, Gomez C, Lopez-Cepero J M and Boveris A. Beneficial effects of moderate exercise on mice aging: survival, behavior, oxidative stress, and mitochondrial electron transfer. Am J Physiol Regul Integr Comp Physiol 286: R505-R511, 2004; Navarro A, Sanchez Del Pino M J, Gomez C, Peralta J L and Boveris A. Behavioral dysfunction, brain oxidative stress, and impaired mitochondrial electron transfer in aging mice. Am J Physiol Regul Integr Comp Physiol 282: R985-R992, 2002).
The mice were stabled in groups of 5 animals at 22±2° C. with 12 h/12 h of light/dark cycles and with free access, ad libitum, to food and water.
(§2) The control group received standard laboratory animal food (A04 diet, Panlab LS, Barcelona, Spain), whereas the l-thioproline-supplemented mice received the same food as the mice in the control group, but supplemented with 2.0 g of l-thioproline (Sigma Aldrich)/kg of food from 28 weeks of age and until the end of their lives.
The food was weighed daily. The mice were weighed weekly, and it was periodically controlled that the animals were pathogen-free.

CD-1 Swiss/UCàdiz mice [3] = assay: Neurological tests (tightrope test and T maze test); conditions: once a week, FIG. 2A, 2B
Text: The animals of Example 1 were subjected to two tests once a week to evaluate neurological capacities, specifically to the tightrope test and the T maze test. The assayed animals were the animals mentioned in Example 1, i.e. the group of control mice and the group of mice with an l-thioproline-supplemented diet according to the treatment described in the Example 1. This test allows evaluating neuromuscular coordination. The mice were suspended in the center of a 60 cm wide tightrope and the time it took them to reach one of the columns located at the end of the rope was measured. The test was considered positive when the animal reached one of the ends in less than 60 seconds. This test measures spontaneous cognitive neurological activity. The mice were placed in a T maze with 50 cm arms, and the test was considered successful when the mice reached the intersection in less than 60 seconds.

CD-1 Swiss/UCàdiz mice [4] = assay: Survival of thioproline-supplemented mice; conditions: for Mean life span / Maximum life expectancy: supplemented mice n=70; for Mean life span: control 62±4 weeks; for Maximum life expectancy: control 118±4 weeks
Text: as §1, §2
The date on which each mouse died (Example 1) was controlled to be able to obtain the survival curves.

O=C(O)C1CSCN1 (stereo not drawn) [l-thioproline, thiazolidine-4-carboxylic acid]
Spontaneous reduction of the intake versus control mice (CD-1 Swiss/UCàdiz mice [1]): approximately 20% | Average daily intake ad libitum (CD-1 Swiss/UCàdiz mice [1]; control 6.3±0.03 g/day): 5.1 ± 0.03 g/day | Weight increase versus control group (CD-1 Swiss/UCàdiz mice [2]; after 12 weeks of l-thioproline-supplemented diet, FIG. 1): smaller weight increase than the increase observed in the control group | Variation: percentage reduction in weight between supplemented mice and control mice (CD-1 Swiss/UCàdiz mice [2]; age 28 weeks): 2.06% | Average weight (CD-1 Swiss/UCàdiz mice [2]; age 28 weeks (start of supplementation), diet with 2.0 g l-thioproline/kg of food): 42.7 ± 0.4 g | Variation: percentage reduction in weight between supplemented mice and control mice (CD-1 Swiss/UCàdiz mice [2]; age 52 weeks): 4.45% | Average weight (CD-1 Swiss/UCàdiz mice [2]; age 52 weeks, diet with 2.0 g l-thioproline/kg of food from 28 weeks of age): 47.2 ± 0.4 g | Variation: percentage reduction in weight between supplemented mice and control mice (CD-1 Swiss/UCàdiz mice [2]; age 78 weeks): 11.65% | Average weight (CD-1 Swiss/UCàdiz mice [2]; age 78 weeks, diet with 2.0 g l-thioproline/kg of food from 28 weeks of age): 48.5 ± 0.5 g | Variation: percentage reduction in weight between supplemented mice and control mice (CD-1 Swiss/UCàdiz mice [2]; age 100 weeks): 10.18% | Average weight (CD-1 Swiss/UCàdiz mice [2]; age 100 weeks, diet with 2.0 g l-thioproline/kg of food from 28 weeks of age): 49.4 ± 0.5 g | Improvement in the neurological tests compared to control group (CD-1 Swiss/UCàdiz mice [3]): 17-39% | Prolongation of mean life span versus control (CD-1 Swiss/UCàdiz mice [4]; from 62 weeks to 80 weeks): approximately 29% | Prolongation of maximum life versus control (CD-1 Swiss/UCàdiz mice [4]; from 118 weeks to 145 weeks): approximately 23% | Mean life span (CD-1 Swiss/UCàdiz mice [4]): 80 weeks | Mean life span (CD-1 Swiss/UCàdiz mice [4]; listed as thioproline): 80±3 weeks | Maximum life expectancy (CD-1 Swiss/UCàdiz mice [4]): 145 weeks | Maximum life expectancy (CD-1 Swiss/UCàdiz mice [4]; listed as thioproline): 145±3 weeks
